Test results from patent publication US12539292B2, “BRM targeting compounds and associated methods of use” (Arvinas Operations, Inc., priority 2018, dated 2026).

Molecular target: T1, BRM (Homo sapiens, UniProt P51531)
T1 construct: In-Cell Western Screen of BRM Degradation in SW1573 Cells; endogenous in cells; host or cells: SW1573
Assay: In-cell Western screen of BRM degradation in SW1573 cells (Dmax and DC50)
Format: cell-based
Conditions: BRM degradation, SW1573 cells; for DC50: read-out: DC50; for Dmax: read-out: Dmax (% degraded)
How it was run: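 SW1573 cells were treated with compound overnight (18-20 h; final DMSO 0.1%), then fixed in 4% PFA, permeabilized with Triton X-100 and blocked. BRM was detected by in-cell Western using 800 nm anti-rabbit and 680 nm anti-mouse secondaries, and Dmax and DC50 were derived from the LI-COR Odyssey signal.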

T1 sequence (P51531 whole entry): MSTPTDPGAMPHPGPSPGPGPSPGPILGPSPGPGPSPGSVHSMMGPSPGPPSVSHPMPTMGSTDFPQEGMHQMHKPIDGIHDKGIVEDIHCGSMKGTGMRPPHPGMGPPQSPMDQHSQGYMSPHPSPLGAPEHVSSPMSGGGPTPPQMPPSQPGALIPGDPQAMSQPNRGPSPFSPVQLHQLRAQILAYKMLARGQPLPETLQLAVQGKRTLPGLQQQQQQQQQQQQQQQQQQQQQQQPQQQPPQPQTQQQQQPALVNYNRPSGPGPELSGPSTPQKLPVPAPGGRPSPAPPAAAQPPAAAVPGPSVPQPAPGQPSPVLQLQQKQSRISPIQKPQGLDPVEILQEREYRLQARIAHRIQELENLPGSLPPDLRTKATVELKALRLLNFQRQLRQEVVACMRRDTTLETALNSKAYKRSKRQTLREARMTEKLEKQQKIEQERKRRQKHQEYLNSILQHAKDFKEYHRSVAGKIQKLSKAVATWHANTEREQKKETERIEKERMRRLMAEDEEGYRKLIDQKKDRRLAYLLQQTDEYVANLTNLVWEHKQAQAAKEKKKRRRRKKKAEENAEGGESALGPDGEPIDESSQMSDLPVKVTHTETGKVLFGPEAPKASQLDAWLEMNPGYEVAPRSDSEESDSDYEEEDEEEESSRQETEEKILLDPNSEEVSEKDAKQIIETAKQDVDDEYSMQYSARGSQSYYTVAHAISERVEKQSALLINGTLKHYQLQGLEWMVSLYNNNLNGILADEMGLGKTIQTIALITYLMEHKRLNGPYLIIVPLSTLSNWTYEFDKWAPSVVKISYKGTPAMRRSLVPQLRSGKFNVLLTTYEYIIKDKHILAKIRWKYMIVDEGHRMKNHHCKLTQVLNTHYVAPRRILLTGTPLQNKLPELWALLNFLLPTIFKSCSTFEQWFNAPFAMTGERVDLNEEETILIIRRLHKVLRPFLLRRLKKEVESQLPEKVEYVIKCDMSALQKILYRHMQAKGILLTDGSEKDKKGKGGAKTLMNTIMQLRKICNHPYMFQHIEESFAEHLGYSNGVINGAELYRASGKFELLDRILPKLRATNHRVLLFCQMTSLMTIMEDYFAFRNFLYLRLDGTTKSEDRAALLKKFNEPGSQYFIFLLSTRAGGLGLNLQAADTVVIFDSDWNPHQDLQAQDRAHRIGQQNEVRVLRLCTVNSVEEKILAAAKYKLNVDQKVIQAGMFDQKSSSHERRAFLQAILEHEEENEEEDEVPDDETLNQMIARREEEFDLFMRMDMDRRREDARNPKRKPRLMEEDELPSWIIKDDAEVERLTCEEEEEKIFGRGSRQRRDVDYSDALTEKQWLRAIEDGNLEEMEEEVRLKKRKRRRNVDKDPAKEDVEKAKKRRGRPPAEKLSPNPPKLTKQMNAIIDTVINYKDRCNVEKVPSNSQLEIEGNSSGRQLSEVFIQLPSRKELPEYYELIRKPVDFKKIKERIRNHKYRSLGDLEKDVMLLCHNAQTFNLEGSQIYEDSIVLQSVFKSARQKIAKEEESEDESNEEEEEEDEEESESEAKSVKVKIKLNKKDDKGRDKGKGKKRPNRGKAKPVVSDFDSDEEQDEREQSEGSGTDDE

Row | SMILES | DC50 [nM] | Dmax [%]
1 | CC(C)[C@H](C(=O)N1C[C@H](O)C[C@H]1C(=O)N[C@@H](C)c1ccc(-c2scnc2N)cc1)c1cc(N2CCC(CN3CCC(O[C@H]4C[C@H](Oc5cc(N6C7CCC6CN(c6cc(-c8ccccc8O)nnc6N)C7)ccn5)C4)CC3)CC2)no1 [compound 629, (2S,4R)-1-((2S)-2-(3-(4-((4-((1r,3r)-3-((4-(3-(3-amino-6-(2-hydroxyphenyl)pyridazin-4-yl)-3,8-diazabicyclo[3.2.1]octan-8-yl)pyridin-2-yl)oxy)cyclobutoxy)piperidin-1-yl)methyl)piperidin-1-yl)isoxazol-5-yl)-3-methylbutanoyl)-N-((S)-1-(4-(4-aminothiazol-5-yl)phenyl)ethyl)-4-hydroxypyrrolidine-2-carboxamide] | 2.5 to 10 | > 75
2 | CC(C)[C@@H](C(=O)N1C[C@H](O)C[C@H]1C(=O)N[C@@H](C)c1ccc(-c2scnc2N)cc1)c1cc(N2CCC(CN3CCC(O[C@H]4C[C@H](Oc5cc(N6C7CCC6CN(c6cc(-c8ccccc8O)nnc6N)C7)ccn5)C4)CC3)CC2)no1 [compound 630, (2S,4R)-1-((2R)-2-(3-(4-((4-((1r,3r)-3-((4-(3-(3-amino-6-(2-hydroxyphenyl)pyridazin-4-yl)-3,8-diazabicyclo[3.2.1]octan-8-yl)pyridin-2-yl)oxy)cyclobutoxy)piperidin-1-yl)methyl)piperidin-1-yl)isoxazol-5-yl)-3-methylbutanoyl)-N-((S)-1-(4-(4-aminothiazol-5-yl)phenyl)ethyl)-4-hydroxypyrrolidine-2-carboxamide] | < 2.5 | > 75
3 | CC(C)[C@H](C(=O)N1C[C@H](O)C[C@H]1C(=O)N[C@@H](C)c1ccc(-c2ccnn2C)cc1)c1cc(N2CCC(CN3CCC(O[C@H]4C[C@H](Oc5cc(N6C7CCC6CN(c6cc(-c8ccccc8O)nnc6N)C7)ccn5)C4)CC3)CC2)no1 [compound 631, (2S,4R)-1-((2S)-2-(3-(4-((4-((1r,3r)-3-((4-(3-(3-amino-6-(2-hydroxyphenyl)pyridazin-4-yl)-3,8-diazabicyclo[3.2.1]octan-8-yl)pyridin-2-yl)oxy)cyclobutoxy)piperidin-1-yl)methyl)piperidin-1-yl)isoxazol-5-yl)-3-methylbutanoyl)-4-hydroxy-N-((S)-1-(4-(1-methyl-1H-pyrazol-5-yl)phenyl)ethyl)pyrrolidine-2-carboxamide] | < 2.5 | > 75
4 | Cc1ncsc1-c1ccc([C@H](C)NC(=O)[C@@H]2C[C@@H](O)CN2C(=O)[C@@H](c2cc(OCCC3CCN(C[C@H]4C[C@H](C#CC(C)n5cc(-c6cc(-c7ccccc7O)nnc6N)cn5)C4)CC3)no2)C(C)C)cc1 (stereo partly drawn) [compound 632, (2S,4R)-1-((2S)-2-(3-(2-(1-(((1r,3S)-3-(3-(4-(3-amino-6-(2-hydroxyphenyl)pyridazin-4-yl)-1H-pyrazol-1-yl)but-1-yn-1-yl)cyclobutyl)methyl)piperidin-4-yl)ethoxy)isoxazol-5-yl)-3-methylbutanoyl)-4-hydroxy-N-((S)-1-(4-(4-methylthiazol-5-yl)phenyl)ethyl)pyrrolidine-2-carboxamide] | < 2.5 | > 75
5 | Cc1ncsc1-c1ccc([C@H](C)NC(=O)[C@@H]2C[C@@H](O)CN2C(=O)[C@H](c2cc(OCCC3CCN(C[C@H]4C[C@H](C#CC(C)n5cc(-c6cc(-c7ccccc7O)nnc6N)cn5)C4)CC3)no2)C(C)C)cc1 (stereo partly drawn) [compound 633, (2S,4R)-1-((2R)-2-(3-(2-(1-(((1r,3R)-3-(3-(4-(3-amino-6-(2-hydroxyphenyl)pyridazin-4-yl)-1H-pyrazol-1-yl)but-1-yn-1-yl)cyclobutyl)methyl)piperidin-4-yl)ethoxy)isoxazol-5-yl)-3-methylbutanoyl)-4-hydroxy-N-((S)-1-(4-(4-methylthiazol-5-yl)phenyl)ethyl)pyrrolidine-2-carboxamide] | < 2.5 | > 75
